Results from ChEMBL document CHEMBL1201862, “PubChem BioAssay data set” (2004).
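Interpolation was linear, between the two tested concentrations surrounding the appropriate level; five concentrations were tested over 48 hours in 96-well plates. At the GI50, growth is halved.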 Activity calls are given as the source filed them. Rule as the data show it: active = GI50 up to about 1.1 µM and inactive = higher.

What was measured:
Experiment in all cases: DTP human tumour cell line panel, 48 h
[1] = system: HCT-116
[2] = system: HCT-15
[3] = system: KM-20L2
[4] = system: LOX IMVI
[5] = system: M19-MEL
[6] = system: MOLT-4
[7] = system: Malme-3M
[8] = system: OVCAR-5
[9] = system: SK-MEL-2
[10] = system: SNB-78
[11] = system: SW-620
[12] = system: SK-MEL-5
[13] = system: BT-549
[14] = system: DU-145
[15] = system: Hs-578T
[16] = system: MCF7
[17] = system: MDA-MB-231
[18] = system: MDA-MB-435
[19] = system: MDA-N
[20] = system: PC-3

Row | Compound | GI50 [1] | GI50 [2] | GI50 [3] | GI50 [4] | GI50 [5] | GI50 [6] | GI50 [7] | GI50 [8] | GI50 [9] | GI50 [10] | GI50 [11] | GI50 [12] | GI50 [13] | GI50 [14] | GI50 [15] | GI50 [16] | GI50 [17] | GI50 [18] | GI50 [19] | GI50 [20]
1 | N#CN=C(N(Cc1ccccc1)Cc1ccccc1)N(Cc1ccccc1)Cc1ccccc1 | 3.51 µM (inactive) | 6.37 µM | 16.4 µM (inactive) | 20.4 µM (inactive) | 25.5 µM (inactive) | 2.74 µM (inactive) | 36.7 µM (inactive) | 45.2 µM (inactive) | 12 µM (inactive) | > 100 µM (inactive) | 9.82 µM (inactive) | – | – | – | – | – | – | – | – | –
2 | CC#C[C@@]1(O)CCCC[C@@H]1O | > 100 µM (inactive) | > 100 µM | > 100 µM (inactive) | > 100 µM (inactive) | > 100 µM (inactive) | > 100 µM (inactive) | > 100 µM (inactive) | – | > 100 µM (inactive) | > 100 µM (inactive) | > 100 µM (inactive) | > 100 µM (inactive) | – | – | – | – | – | – | – | –
3 | C=C(Nc1ccc(OC)cc1OC)C(=O)Cc1cccc[n+]1[O-] | > 100 µM (inactive) | > 100 µM | > 100 µM (inactive) | > 100 µM (inactive) | > 100 µM (inactive) | > 100 µM (inactive) | > 100 µM (inactive) | > 100 µM (inactive) | > 100 µM (inactive) | > 100 µM (inactive) | > 100 µM (inactive) | > 100 µM (inactive) | – | – | – | – | – | – | – | –
4 | O=C1C=C(Br)c2c(-c3ccccc3)oc3cccc1c23 | 25.2 µM (inactive) | > 45.7 µM | > 100 µM (inactive) | > 49 µM (inactive) | > 60.1 µM (inactive) | > 41.5 µM (inactive) | 72.3 µM (inactive) | > 100 µM (inactive) | 71.8 µM (inactive) | 35.6 µM (inactive) | > 100 µM (inactive) | 54.3 µM (inactive) | > 100 µM (inactive) | 31.6 µM (inactive) | 29.3 µM (inactive) | 2.62 µM (inactive) | 26.4 µM (inactive) | 17.1 µM (inactive) | 18.4 µM (inactive) | > 100 µM (inactive)
5 | O=S(=O)(N/N=C/c1c(Cl)cccc1Cl)c1ccccc1 | > 100 µM (inactive) | > 100 µM | > 100 µM (inactive) | > 100 µM (inactive) | > 100 µM (inactive) | 91.4 µM (inactive) | > 100 µM (inactive) | > 100 µM (inactive) | > 100 µM (inactive) | > 100 µM (inactive) | > 100 µM (inactive) | > 100 µM (inactive) | – | – | – | – | – | – | – | –
6 | O=C1/C(=C/c2ccccc2)CN(C(=O)C(Cl)(Cl)Cl)C/C1=C\c1ccccc1 | 0.356 µM (active) | 1.68 µM | 2.16 µM (inactive) | 0.94 µM (active) | 1.33 µM (inactive) | 1.36 µM (inactive) | 2.11 µM (inactive) | 2.51 µM (inactive) | 2.91 µM (inactive) | 2.72 µM (inactive) | 0.546 µM (active) | 1.15 µM (inactive) | – | – | – | – | – | – | – | –
7 | C/C(=C/c1c(C)[nH]c(=O)[nH]c1=O)C(=O)O | > 1370 µM (inactive) | > 1370 µM | > 1370 µM (inactive) | > 1370 µM (inactive) | > 1370 µM (inactive) | > 1370 µM (inactive) | > 1370 µM (inactive) | > 1260 µM (inactive) | – | > 1370 µM (inactive) | > 1370 µM (inactive) | > 1370 µM (inactive) | – | – | – | > 1370 µM (inactive) | – | – | – | –
8 | O=C1/C(=C/c2ccccc2)CCC/C1=C\c1ccccc1 [2,6-DIBENZYLIDENECYCLOHEXANONE] | 1.71 µM (inactive) | 8.07 µM | 8.79 µM (inactive) | 2.21 µM (inactive) | 1.97 µM (inactive) | 3.95 µM (inactive) | 16.5 µM (inactive) | 17.3 µM (inactive) | 16.7 µM (inactive) | 17.5 µM (inactive) | 2.6 µM (inactive) | 13.2 µM (inactive) | 5.81 µM (inactive) | 6.97 µM (inactive) | 8.2 µM (inactive) | 1.74 µM (inactive) | 6.07 µM (inactive) | 5.62 µM (inactive) | 2.79 µM (inactive) | 5.89 µM (inactive)
9 | CC1(C)OCC[C@@H]1[Si](C)(C)C | 92.7 µM (inactive) | 32.4 µM | > 100 µM (inactive) | 56.9 µM (inactive) | > 100 µM (inactive) | 33 µM (inactive) | > 100 µM (inactive) | > 100 µM (inactive) | > 100 µM (inactive) | > 100 µM (inactive) | > 100 µM (inactive) | 26.9 µM (inactive) | – | – | – | – | – | – | – | –
10 | CCOC(=O)C1C(=O)CN2CCc3c([nH]c4ccccc34)C12C(=O)OCC (configuration not stated) | > 100 µM (inactive) | > 100 µM | > 100 µM (inactive) | > 100 µM (inactive) | > 100 µM (inactive) | > 100 µM (inactive) | > 100 µM (inactive) | > 100 µM (inactive) | > 100 µM (inactive) | > 100 µM (inactive) | > 100 µM (inactive) | > 100 µM (inactive) | – | – | – | – | – | – | – | –
11 | O=C(c1cccs1)N(C(=S)N1CCN(c2ccccc2)CC1)c1ccccc1 | > 100 µM (inactive) | > 100 µM | > 100 µM (inactive) | > 100 µM (inactive) | > 100 µM (inactive) | > 100 µM (inactive) | > 100 µM (inactive) | > 100 µM (inactive) | > 100 µM (inactive) | > 100 µM (inactive) | > 100 µM (inactive) | > 100 µM (inactive) | – | – | – | – | – | – | – | –
12 | COc1ccc(NC(=O)C(=O)NO)c(OC)c1 | 18.5 µM (inactive) | 16.3 µM | 19.1 µM (inactive) | 14.2 µM (inactive) | 21.9 µM (inactive) | 11.9 µM (inactive) | 23.8 µM (inactive) | 19.5 µM (inactive) | 16.1 µM (inactive) | 19.8 µM (inactive) | 18.7 µM (inactive) | 18.5 µM (inactive) | – | – | – | – | – | – | – | –
13 | Cc1ccc(S(=O)(=O)OC(COC(=O)c2ccccc2)C(OS(=O)(=O)c2ccc(C)cc2)C(OS(=O)(=O)c2ccc(C)cc2)C(COC(=O)c2ccccc2)OS(=O)(=O)c2ccc(C)cc2)cc1 (configuration not stated) | > 100 µM (inactive) | > 100 µM | > 100 µM (inactive) | > 100 µM (inactive) | > 100 µM (inactive) | > 100 µM (inactive) | > 100 µM (inactive) | – | > 100 µM (inactive) | > 100 µM (inactive) | > 100 µM (inactive) | > 100 µM (inactive) | – | – | – | – | – | – | – | –
14 | C/C=C/C(C#N)O[Si](C)(C)C (configuration not stated) | > 100 µM (inactive) | > 100 µM | > 100 µM (inactive) | – | > 100 µM (inactive) | > 100 µM (inactive) | > 100 µM (inactive) | > 100 µM (inactive) | > 100 µM (inactive) | > 100 µM (inactive) | > 100 µM (inactive) | > 100 µM (inactive) | – | – | – | – | – | – | – | –
15 | CN(/N=C/c1cccc2cccnc12)c1ccc([N+](=O)[O-])cc1[N+](=O)[O-] | 35.1 µM (inactive) | 63 µM | > 100 µM (inactive) | 57.9 µM (inactive) | > 78 µM (inactive) | > 100 µM (inactive) | 18.2 µM (inactive) | 70.1 µM (inactive) | 14.9 µM (inactive) | 18.4 µM (inactive) | 99.5 µM (inactive) | 52.5 µM (inactive) | 21.3 µM (inactive) | 65.5 µM (inactive) | 9.71 µM (inactive) | 40.8 µM (inactive) | 23.1 µM (inactive) | > 100 µM (inactive) | > 100 µM (inactive) | 55 µM (inactive)
16 | Cc1cccc(C)c1NC(=O)C(=O)C1C(=O)N(c2ccccc2)N=C1N (configuration not stated) | > 100 µM (inactive) | > 100 µM | > 100 µM (inactive) | > 100 µM (inactive) | > 100 µM (inactive) | > 100 µM (inactive) | > 100 µM (inactive) | > 100 µM (inactive) | > 100 µM (inactive) | > 100 µM (inactive) | > 100 µM (inactive) | > 100 µM (inactive) | – | – | – | – | – | – | – | –
